Reference: ChEMBL document CHEMBL1201862, “PubChem BioAssay data set” (2004)
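Cells were grown in 96-well plates and exposed to each compound for 48 hours at five concentrations; endpoints were interpolated linearly between bracketing concentrations, or set to the highest concentration if not reached. GI50 = concentration required for 50% inhibition of growth.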 Activity calls are given as the source filed them. Cut-off read from the data, not from the text of the source: active = GI50 up to about 1.1 µM and inactive = higher.

Tests used:
Assay in all cases: DTP human tumour cell line panel, 48 h
[1] = test system: HOP-92
[2] = test system: TK-10
[3] = test system: OVCAR-4
[4] = test system: SK-MEL-28
[5] = test system: Hs-578T
[6] = test system: Malme-3M
[7] = test system: UACC-62
[8] = test system: HCC 2998
[9] = test system: SK-MEL-5
[10] = test system: SF-268
[11] = test system: NCI-H522
[12] = test system: HL-60
[13] = test system: M14
[14] = test system: COLO 205
[15] = test system: SNB-19
[16] = test system: NCI-H226
[17] = test system: OVCAR-5
[18] = test system: SK-OV-3
[19] = test system: A498
[20] = test system: NCI-H460
[21] = test system: MDA-MB-435
[22] = test system: HCT-15
[23] = test system: SF-539
[24] = test system: T47D
[25] = test system: UO-31
[26] = test system: PC-3
[27] = test system: MOLT-4
[28] = test system: SN12C
[29] = test system: KM12
[30] = test system: CCRF-CEM
[31] = test system: HOP-62
[32] = test system: 786-0
[33] = test system: U-251
[34] = test system: IGROV-1
[35] = test system: SW-620
[36] = test system: ACHN
[37] = test system: SR
[38] = test system: NCI-H23
[39] = test system: MDA-MB-231
[40] = test system: RXF 393
[41] = test system: CAKI-1
[42] = test system: HCT-116
[43] = test system: LOX IMVI
[44] = test system: SK-MEL-2
[45] = test system: NCI/ADR-RES
[46] = test system: A549
[47] = test system: EKVX
[48] = test system: OVCAR-3
[49] = test system: SNB-75
[50] = test system: RPMI-8226
[51] = test system: HT-29
[52] = test system: DU-145
[53] = test system: SF-295
[54] = test system: K562
[55] = test system: MCF7
[56] = test system: OVCAR-8
[57] = test system: UACC-257

**Q.** What does the source list for Clc1ccc(-c2nn3c(C45CC6CC(CC(C6)C4)C5)nnc3s2)cc1?
**A.** GI50 [1]: > 100 µM (inactive); GI50 [2]: > 100 µM (inactive); GI50 [3]: 34.4 µM (inactive); GI50 [4]: > 100 µM (inactive); GI50 [5]: > 100 µM (inactive); GI50 [6]: > 100 µM (inactive); GI50 [7]: > 100 µM (inactive); GI50 [8]: > 100 µM (inactive); GI50 [9]: > 100 µM (inactive); GI50 [10]: > 100 µM (inactive); GI50 [11]: > 100 µM (inactive); GI50 [12]: > 100 µM (inactive); GI50 [13]: > 100 µM (inactive); GI50 [14]: > 100 µM (inactive); GI50 [15]: > 100 µM (inactive); GI50 [16]: > 100 µM (inactive); GI50 [17]: > 100 µM (inactive); GI50 [18]: > 100 µM (inactive); GI50 [19]: 50.2 µM (inactive); GI50 [20]: > 100 µM (inactive); GI50 [21]: > 100 µM (inactive); GI50 [22]: > 100 µM; GI50 [23]: > 100 µM (inactive); GI50 [24]: > 100 µM (inactive); GI50 [25]: > 100 µM (inactive); GI50 [26]: > 100 µM (inactive); GI50 [27]: > 100 µM (inactive); GI50 [28]: > 100 µM (inactive); GI50 [29]: > 100 µM (inactive); GI50 [30]: > 100 µM (inactive); GI50 [31]: > 100 µM (inactive); GI50 [32]: 35.7 µM (inactive); GI50 [33]: > 100 µM (inactive); GI50 [34]: > 100 µM (inactive); GI50 [35]: > 100 µM (inactive); GI50 [36]: 69.5 µM (inactive); GI50 [37]: > 100 µM (inactive); GI50 [38]: > 100 µM (inactive); GI50 [39]: 55.6 µM (inactive); GI50 [40]: > 100 µM (inactive); GI50 [41]: > 100 µM (inactive); GI50 [42]: 63.1 µM (inactive); GI50 [43]: > 100 µM (inactive); GI50 [44]: > 100 µM (inactive); GI50 [45]: > 100 µM (inactive); GI50 [46]: > 100 µM (inactive); GI50 [47]: > 100 µM (inactive); GI50 [48]: 39.1 µM (inactive); GI50 [49]: > 100 µM (inactive); GI50 [50]: > 100 µM (inactive); GI50 [51]: > 100 µM (inactive); GI50 [52]: > 100 µM (inactive); GI50 [53]: > 100 µM (inactive); GI50 [54]: > 100 µM (inactive)

**Q.** With N#CCN1CCCCCc2ccccc21 as the compound, how does the GI50 [1] read?
**A.** The GI50 was > 100 µM (inactive).

**Q.** And the GI50 [2]?
**A.** Its GI50 is > 100 µM (inactive).

**Q.** And the GI50 [3]?
**A.** Its GI50 is > 100 µM (inactive).

**Q.** And the GI50 [4]?
**A.** Its GI50 is > 100 µM (inactive).

**Q.** What about the GI50 [5] of the same compound?
**A.** Its GI50 is > 100 µM (inactive).

**Q.** And the GI50 [6]?
**A.** Its GI50 is > 100 µM (inactive).

**Q.** What about the GI50 [7] of the same compound?
**A.** The GI50 was > 100 µM (inactive).

**Q.** What about the GI50 [8] of the same compound?
**A.** Its GI50 is > 100 µM (inactive).

**Q.** What about the GI50 [9] of the same compound?
**A.** Its GI50 is > 100 µM (inactive).

**Q.** And the GI50 [10]?
**A.** The GI50 was > 100 µM (inactive).

**Q.** And the GI50 [12]?
**A.** Its GI50 is > 100 µM (inactive).

**Q.** And the GI50 [13]?
**A.** Its GI50 is > 100 µM (inactive).

**Q.** What about the GI50 [14] of the same compound?
**A.** The GI50 was > 100 µM (inactive).

**Q.** What about the GI50 [55] of the same compound?
**A.** The GI50 was > 100 µM (inactive).

**Q.** And the GI50 [15]?
**A.** Its GI50 is > 100 µM (inactive).

**Q.** And the GI50 [16]?
**A.** The GI50 was > 100 µM (inactive).

**Q.** What about the GI50 [17] of the same compound?
**A.** Its GI50 is > 100 µM (inactive).

**Q.** What about the GI50 [18] of the same compound?
**A.** The GI50 was > 100 µM (inactive).

**Q.** And the GI50 [56]?
**A.** Its GI50 is > 100 µM (inactive).

**Q.** What about the GI50 [20] of the same compound?
**A.** Its GI50 is > 100 µM (inactive).

**Q.** And the GI50 [21]?
**A.** Its GI50 is > 100 µM (inactive).

**Q.** What about the GI50 [22] of the same compound?
**A.** Its GI50 is greater than 100 µM.

**Q.** What about the GI50 [23] of the same compound?
**A.** The GI50 was > 100 µM (inactive).

**Q.** What about the GI50 [24] of the same compound?
**A.** Its GI50 is > 100 µM (inactive).

**Q.** And the GI50 [25]?
**A.** Its GI50 is > 100 µM (inactive).

**Q.** What about the GI50 [27] of the same compound?
**A.** The GI50 was > 100 µM (inactive).

**Q.** What about the GI50 [28] of the same compound?
**A.** The GI50 was > 100 µM (inactive).

**Q.** What about the GI50 [29] of the same compound?
**A.** The GI50 was > 100 µM (inactive).

**Q.** And the GI50 [30]?
**A.** Its GI50 is > 100 µM (inactive).

**Q.** What about the GI50 [31] of the same compound?
**A.** Its GI50 is > 100 µM (inactive).

**Q.** And the GI50 [32]?
**A.** The GI50 was > 100 µM (inactive).

**Q.** What about the GI50 [33] of the same compound?
**A.** The GI50 was > 100 µM (inactive).

**Q.** What about the GI50 [34] of the same compound?
**A.** The GI50 was > 100 µM (inactive).

**Q.** And the GI50 [35]?
**A.** Its GI50 is > 100 µM (inactive).

**Q.** And the GI50 [36]?
**A.** Its GI50 is > 100 µM (inactive).

**Q.** And the GI50 [37]?
**A.** Its GI50 is > 100 µM (inactive).

**Q.** What about the GI50 [38] of the same compound?
**A.** The GI50 was > 100 µM (inactive).

**Q.** And the GI50 [57]?
**A.** Its GI50 is > 100 µM (inactive).

**Q.** And the GI50 [39]?
**A.** The GI50 was > 100 µM (inactive).

**Q.** And the GI50 [40]?
**A.** Its GI50 is > 100 µM (inactive).

**Q.** And the GI50 [42]?
**A.** The GI50 was > 100 µM (inactive).

**Q.** And the GI50 [45]?
**A.** The GI50 was > 100 µM (inactive).

**Q.** What about the GI50 [46] of the same compound?
**A.** The GI50 was > 100 µM (inactive).

**Q.** What about the GI50 [47] of the same compound?
**A.** Its GI50 is > 100 µM (inactive).

**Q.** What about the GI50 [49] of the same compound?
**A.** The GI50 was > 100 µM (inactive).

**Q.** And the GI50 [50]?
**A.** Its GI50 is > 100 µM (inactive).

**Q.** What about the GI50 [51] of the same compound?
**A.** Its GI50 is > 100 µM (inactive).

**Q.** What about the GI50 [52] of the same compound?
**A.** Its GI50 is > 100 µM (inactive).

**Q.** What about the GI50 [53] of the same compound?
**A.** The GI50 was 53.5 µM (inactive).

**Q.** And the GI50 [54]?
**A.** The GI50 was > 100 µM (inactive).
